Columns and labels:
TU-5 tumor cells = assay: Macrophage cytotoxic activity towards TU-5 tumor cells (peritoneal macrophages of i.p. treated mice, MTT); assay type: cell-based; details: Effector:Target 5:1; 10 mg/kg/i.p.; 7 days before cell collection; 48 hours incubation
Method: The experimental procedure to evaluate this activity is as follows: groups of 4 mice are treated i.p. with the tested compounds and then, seven days later, peritoneal cells are collected and plated for 2 hours at 37° C. After this period the walls are washed to eliminate the non adherent cells, tumor target cells are then added and the incubation prolonged for 48 hours. At the end of this period the target cells viability is evaluated by the MTT colorimetric method (Abstracts of VIII European Immunology Meeting, Zagreb, 1987, pag 94 n°2105) based on the optical density (OD) evaluation at 570 nm.
Percent specific cytotoxicity (%C) is calculated as % inhibition of TU-5 tumor cells (Immunology, 1984, 166, 251) growth using the following formula: [formula]
The following Table I summarizes the immunostimulating activity data of some representative compounds of the invention, obtained according to hereabove experimental procedure, towards TU-5 tumor cells.

Pseudomonas aeruginosa = Pseudomonas aeruginosa infection in Cyclophosphamide immunosuppressed mice; assay type: in vivo; details: for % survival: 10 mg/kg/i.p., 8 LD50 intravenously, 10 days after bacterial challenge; for effectiveness against Pseudomonas aeruginosa infection: Cyclophosphamide immunosuppressed mice, in words
Method: The experimental procedure to evaluate this activity is as follows: mice are immunosuppressed 4 days before the bacterial challenge by a single dose of 200 mg/kg of Cyclophosphamide given intraperitoneally. Tested compounds are administered i.p. on days +1 and +3 relative to Cyclophosphamide administration. Clinically isolated Pseudomonas aeruginosa is administered intravenously in amount of 8 LD50. Host resistance to infection is estimated by the number of mice surviving 10 days after the bacterial challenge.

## N#CC(C(=O)Nc1ccccc1)C(=O)c1nn(-c2ccccc2)c2c1Cc1ccccc1-2 (stereo not drawn) [FCE 25276, 2-cyano-3-(1,4-dihydro-1-phenyl-indeno[1,2-c]pyrazol-3-yl) -3-oxo-N-phenyl-propanamide]
TU-5 tumor cells
  Macrophage cytotoxic activity (% inhibition of TU-5 growth): 93%
Pseudomonas aeruginosa
  % survival: 90%
  effectiveness against Pseudomonas aeruginosa infection: strongly effective

## N#CC(C(=O)Nc1ccc(F)cc1)C(=O)c1nn(-c2ccccc2)c2c1Cc1ccccc1-2 (stereo not drawn) [FCE 25648, 2-cyano-N-(4-fluoro-phenyl)-3-(1,4-dihydro-1-phenyl-indeno[1,2-c]pyrazol-3-yl)-3-oxo-propanamide]
TU-5 tumor cells
  Macrophage cytotoxic activity (% inhibition of TU-5 growth): 77%
Pseudomonas aeruginosa
  % survival: 90%
  effectiveness against Pseudomonas aeruginosa infection: strongly effective

## N#CC(C(=O)Nc1cccc(Cl)c1)C(=O)c1nn(-c2ccccc2)c2c1Cc1ccccc1-2 (stereo not drawn) [FCE 25651, N-(3-chloro-phenyl)-2-cyano-3-(1,4-dihydro-1-phenyl-indeno[1,2-c]pyrazol-3-yl)-3-oxo-propanamide]
TU-5 tumor cells
  Macrophage cytotoxic activity (% inhibition of TU-5 growth): 79%
Pseudomonas aeruginosa
  % survival: 90%
  effectiveness against Pseudomonas aeruginosa infection: strongly effective

## N#CC(C(=O)Nc1ccccc1)C(=O)c1nn(-c2ccccc2)c2c1sc1ccccc12 (stereo not drawn) [FCE 26047, 2-cyano-3-oxo-3-(1-phenyl-1H-benzothieno[3,2-c]pyrazol-3-yl)-N-phenyl-propanamide]
TU-5 tumor cells
  Macrophage cytotoxic activity (% inhibition of TU-5 growth): 82%
Pseudomonas aeruginosa
  % survival: 70%
  effectiveness against Pseudomonas aeruginosa infection: strongly effective
